Experimental findings from patent publication US6960591B2, “Propane-1,3-dione derivative” (Yamanouchi Pharmaceutical Co., Ltd., priority 2000, dated 2005) are described below.

In this experiment the target is T1, human GnRH receptor (Homo sapiens, UniProt P30968).
T1 construct: expressed in transfected cells; membrane fraction
T1 sequence (P30968 1-328): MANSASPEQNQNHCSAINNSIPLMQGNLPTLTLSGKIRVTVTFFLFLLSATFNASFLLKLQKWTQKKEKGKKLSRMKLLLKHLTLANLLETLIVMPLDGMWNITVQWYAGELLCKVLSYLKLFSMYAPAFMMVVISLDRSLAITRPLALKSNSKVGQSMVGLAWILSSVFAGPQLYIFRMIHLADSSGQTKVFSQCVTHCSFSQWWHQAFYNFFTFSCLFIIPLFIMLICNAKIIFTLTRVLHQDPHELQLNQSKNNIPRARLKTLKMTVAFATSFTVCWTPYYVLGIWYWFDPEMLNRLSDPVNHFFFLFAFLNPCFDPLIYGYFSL
As to the kind of experiment: Test of in vitro GnRH receptor antagonism: 125I-D-Trp6-LHRH binding inhibition. As to conditions: inhibition of 0.1 nM 125I-D-Trp6-LHRH binding; membrane fractions of CHO cells expressing human GnRH receptor; 4° C. for 3 hours; read-out: IC50 value (concentration at which PMB equals 50%). The method, then:
In the following, in vitro GnRH receptor antagonistic effect of the pharmaceutical drugs and compounds of the invention was evaluated by inhibition of binding of ^125I-D-Trp^6-LHRH to human GnRH receptor.
1. Test of In Vitro GnRH Receptor Antagonism
(1) Preparation of Human GnRH Receptor-Expressing CHO (Chinese Hamster Ovary) Cells
Expression of human […] was carried out in a similar manner to a common method for protein expression (Chapter 9 In: Current Protocols In Molecular Biology: ed. by F. M. Ausubel et al., Greene Publishing Associates and Wiley-Interscience, 9.0.1-9.9.6 (1987), S. S. Kaker et al., Biol. Biophys. Res. Commun. 189, 289-295 (1992), R. Grosse et al., Mol. Endocrinol. 11, 1305-1318 (1997)). CHO cells were cultured (medium: αMEM, 10% FCS, containing an antibiotic-antimycotic agent) with an expression vector which has human GnRH receptor gene (SEQ ID No.: 1) and a transfection reagent FuGENE6 (manufactured by Boehringer-Mannheim) for 24 hours for transfection, whereby the CHO cells stably expressing human GnRH receptor (SEQ ID No.: 2, S. S. Kaker et al., Biol. Biophys. Res. Commun, 189, 289-295 (1992)) were obtained. The expression of the aimed receptor was confirmed by PCR method.
(2) Preparation of CHO Cell Membrane Fraction Containing Human GnRH Receptor
The CHO cells expressing the human GnRH receptor (3×10^8 cells), prepared in the above (1), were suspended in phosphate buffered saline (PBS) and centrifuged for 3 minutes at 100×G. The pellet suspended in 100 ml of a homogenate buffer (10 mM NaHCO3, 5 mM EDTA (ethylenediaminetetraacetic acid), pH 7.5) was homogenized using a Polytron homogenizer. After the resulting homogenate was centrifuged for 15 minutes at 400×G, the supernatant was centrifuged for 1 hour at 100,000×G. The membrane fraction obtained as a pellet was suspended in 60 ml of storage buffer (25 mM Tris-HCl, 1 mM EDTA, 10 μg/ml a protease inhibitor (Pefabloc SC (manufactured by Merck)), 1 μg/ml pepstatin A, 20 μg/ml leupeptin, 0.03% sodium azide, pH 7.5), and stored at −80° C. until use. […]
The membrane fractions of CHO cells expressing the human GnRH receptor which were prepared in the above (2) were diluted with assay buffer (HBSS (Hanks balanced salt solution), 20 mM HEPES, 0.1% BSA (bovine serum albumin), 100 μg/ml bacitracin, pH 7.4) so as to be 20 μg/tube, and were dispensed into tubes in an amount of 148 μl. […] The filters were washed three times with 1 ml of assay buffer and the radioactivity on the filter was measured using a γ-counter. Binding inhibition (%) (PMB) of each test compound at various concentrations were determined according to the following equation: PMB=(SB−NSB)/(TB−NSB)×100 (wherein TB: total binding radioactivity, SB: radioactivity when a test compound was added, NSB: non-specific binding radioactivity). […]

Where a name gives a salt, the structure may show the parent alone.

As for `Nc1cccc(C(=O)C(C(=O)c2cc(F)cc(F)c2)=C2Nc3ccccc3N2)c1` [Example 40, 1-(3-aminophenyl)-3-(3,5-difluorophenyl)-2-(1,3-dihydro-2H-benzimidazol-2-ylidene)propane-1,3-dione hydrochloride], the IC50 was 100 to 1000 pM.

Regarding `O=C(C(C(=O)c1cccc(CNCCc2ccncc2)c1)=C1Nc2ccccc2N1)c1ccccc1` [Example 79, 2-(1,3-dihydro-2H-benzimidazol-2-ylidene)-1-phenyl-3-(3-{[(2-pyridin-4-ylethyl)amino]methyl}phenyl)propane-1,3-dione hydrochloride], the IC50 was 100 to 1000 pM.

With `O=C(C(C(=O)c1cccc(NCc2c[nH]cn2)c1)=C1Nc2ccccc2N1)c1cc(F)cc(F)c1` [Example 83, 1-(3,5-difluorophenyl)-2-(1,3-dihydro-2H-benzimidazol-2-ylidene)-3-{3-[(1H-imidazol-4-ylmethyl)amino]phenyl}propane-1,3-dione hydrochloride], the IC50 is 100 to 1000 pM.

With `O=C(C(C(=O)c1cc(F)cc(F)c1)=C1Nc2ccc(OCc3cccnc3)cc2N1)c1ccccc1` [Example 402, 1-(3,5-difluorophenyl)-2-[5-(pyridin-3-ylmethoxy)-1,3-dihydro-2H-benzimidazol-2-ylidene]-3-phenylpropane-1,3-dione oxalate], the IC50 was 100 to 1000 pM.
